Source: ChEMBL document CHEMBL4342418, “1,2,3-Triazole-containing hybrids as potential anticancer agents: Current developments, action mechanisms and structure-activity relationships” (Eur J Med Chem, 2019)
Values after ≈ are worked out from the molar mass of the structure shown. Each block holds one molecule with its values, some of them ahead of it.

What was measured:
A549 [1] = assay: Antiproliferative activity against human A549 cells assessed as reduction in cell viability after 48 hrs by SRB assay; format: functional, cell-based; settings: A549, 48 h
MCF7 [2] = assay: Antiproliferative activity against human MCF7 cells assessed as reduction in cell viability after 48 hrs by SRB assay; format: functional, cell-based; settings: MCF7, 48 h
HT-29 [3] = assay: Antiproliferative activity against human HT-29 cells assessed as reduction in cell viability after 48 hrs by SRB assay; format: functional, cell-based; settings: HT-29, 48 h
HCT-116 [4] = assay: Antiproliferative activity against human HCT116 cells assessed as reduction in cell viability after 48 hrs by SRB assay; format: functional, cell-based; settings: HCT-116, 48 h
HepG2 [5] = assay: Antiproliferative activity against human HepG2 cells by MTT assay; format: functional, cell-based
[6] = Antiproliferative activity against human SMCC7721 cells assessed as reduction in cell viability after 48 hrs by MTT assay; format: functional, cell-based
DU-145 [7] = assay: Antiproliferative activity against human DU145 cells by SRB assay; format: functional, cell-based
DU-145 [8] = assay: Antiproliferative activity against human DU145 cells assessed as reduction in cell viability after 48 hrs by MTT assay; format: functional, cell-based; settings: DU-145, 48 h
KB = assay: Antiproliferative activity against human KB cells by MTT assay; format: functional, cell-based
HeLa [9] = assay: Antiproliferative activity against human HeLa cells by SRB assay; format: functional, cell-based
MCF7-DOX = assay: Antiproliferative activity against human MCF7/Dox cells by SRB assay; format: functional, cell-based
T47D = assay: Antiproliferative activity against human T47D cells assessed as reduction in cell viability after 72 hrs by MTT assay; format: functional, cell-based
MCF7 [10] = assay: Antiproliferative activity against human MCF7 cells by SRB assay; format: functional, cell-based
MCF7 [11] = assay: Antiproliferative activity against human MCF7 cells assessed as reduction in cell viability after 72 hrs by MTT assay; format: functional, cell-based; settings: MCF7, 72 h
A549 [12] = assay: Antiproliferative activity against human A549 cells by SRB assay; format: functional, cell-based
MCF7 [13] = assay: Antiproliferative activity against human MCF7 cells assessed as reduction in cell viability after 48 hrs by MTT assay; format: functional, cell-based; settings: MCF7, 48 h
SW480 = assay: Antiproliferative activity against human SW480 cells assessed as reduction in cell viability after 48 hrs by MTT assay; format: functional, cell-based; settings: SW480, 48 h
HL-60 = assay: Antiproliferative activity against human HL60 cells assessed as reduction in cell viability after 48 hrs by MTT assay; format: functional, cell-based; settings: HL-60, 48 h
SK-OV-3 = assay: Antiproliferative activity against human SKOV3 cells by SRB assay; format: functional, cell-based
A549 [14] = assay: Antiproliferative activity against human A549 cells assessed as reduction in cell viability after 48 hrs by MTT assay; format: functional, cell-based; settings: A549, 48 h
HepG2 [15] = assay: Antiproliferative activity against human HepG2 cells by SRB assay; format: functional, cell-based
HCT-116 [16] = assay: Antiproliferative activity against human HCT116 cells assessed as reduction in cell viability after 48 hrs by MTT assay; format: functional, cell-based; settings: HCT-116, 48 h
HT-29 [17] = assay: Antiproliferative activity against human HT-29 cells assessed as reduction in cell viability after 48 hrs by MTT assay; format: functional, cell-based; settings: HT-29, 48 h
HBL-100 = assay: Antiproliferative activity against human HBL100 cells assessed as reduction in cell viability after 48 hrs by MTT assay; format: functional, cell-based; settings: HBL-100, 48 h
K562 = assay: Antiproliferative activity against human K562 cells assessed as reduction in cell viability after 72 hrs by MTT assay; format: functional, cell-based; settings: K562, 72 h
HeLa [18] = assay: Antiproliferative activity against human HeLa cells assessed as reduction in cell viability after 72 hrs by MTT assay; format: functional, cell-based
Caco-2 = assay: Antiproliferative activity against human Caco2 cells assessed as reduction in cell viability after 72 hrs by MTT assay; format: functional, cell-based; settings: Caco-2, 72 h
[19] = Cytotoxicity against dog MDCK1 cells assessed as reduction in cell viability after 72 hrs by MTT assay; format: cell-based; settings: Canis lupus familiaris, MDCK1, 72 h
HT-29 [20] = assay: Antiproliferative activity against human HT-29 cells assessed as reduction in cell viability after 72 hrs by MTT assay; format: functional, cell-based; settings: HT-29, 72 h
MOLT-4 = assay: Antiproliferative activity against human MOLT4 cells assessed as reduction in cell viability after 72 hrs by MTT assay; format: functional, cell-based; settings: MOLT-4, 72 h
DU-145 [21] = assay: Antiproliferative activity against human DU145 cells by MTT assay; format: functional, cell-based
HT-29 [22] = assay: Antiproliferative activity against human HT-29 cells by MTT assay; format: functional, cell-based
MV4-11 = assay: Antiproliferative activity against human MV4-11 cells by MTT assay; format: functional, cell-based
A549 [23] = assay: cells; format: functional, cell-based; settings: Homo sapiens
Description: Antiproliferative activity against human A549 cells by MTT assay

MCF-10A = assay: Cytotoxicity against human MCF10A cells by MTT assay; format: cell-based
MCF7 [24] = assay: cells; format: functional, cell-based; settings: Homo sapiens
Description: Antiproliferative activity against human MCF7 cells by MTT assay

MDA-MB-231 = assay: Antiproliferative activity against human MDA-MB-231 cells by MTT assay; format: functional, cell-based
HeLa [25] = assay: Antiproliferative activity against human HeLa cells by MTT assay; format: functional, cell-based
HEK293 = assay: Cytotoxicity against HEK293 cells by MTT assay; format: cell-based; settings: Homo sapiens

IC50 (A549 [1]): 1.76 to 9.46 µM
IC50 (MCF7 [2]): 1.76 to 9.46 µM
IC50 (HT-29 [3]): 1.76 to 9.46 µM
IC50 (HCT-116 [4]): 1.76 to 9.46 µM
SMILES: O=C(/C=C/c1cn(-c2ccccc2)nc1-c1ccccc1)OCc1cn(-c2ccc([N+](=O)[O-])cc2)nn1

IC50 (HCT-116 [16]): 5.16 to 9.44 µM
IC50 (HT-29 [17]): 5.16 to 9.44 µM
IC50 (A549 [14]): 5.16 to 9.44 µM
SMILES: C[C@@H]1CC[C@@]2(OC1)O[C@H]1C[C@H]3[C@@H]4CC=C5C[C@@H](OCc6cn(-c7ccccc7C#N)nn6)CC[C@]5(C)[C@H]4CC[C@]3(C)[C@H]1[C@@H]2C
IC50 (HBL-100): 5.16 to 9.44 µM

IC50 (HCT-116 [16]): 5.16 to 9.44 µM
IC50 (HT-29 [17]): 5.16 to 9.44 µM
IC50 (A549 [14]): 5.16 to 9.44 µM
SMILES: C[C@@H]1CC[C@@]2(OC1)O[C@H]1C[C@H]3[C@@H]4CC=C5C[C@@H](OCc6cn(-c7ccccc7[N+](=O)[O-])nn6)CC[C@]5(C)[C@H]4CC[C@]3(C)[C@H]1[C@@H]2C
IC50 (HBL-100): 5.16 to 9.44 µM

IC50 (HT-29 [20]): 6.8 to 10.4 µM
IC50 (MOLT-4): 6.8 to 10.4 µM
IC50 (MCF7 [11]): 6.8 to 10.4 µM
SMILES: O=C1C=C(NCc2cn(Cc3ccc(C(F)(F)F)cc3)nn2)C(=O)c2ccccc21

IC50 (DU-145 [21]): 10.9 to 18.6 µM
IC50 (A549 [23]): 10.9 to 18.6 µM
IC50 (MDA-MB-231): 11.2 µM
IC50 (HeLa [25]): 10.9 to 18.6 µM
IC50 (MCF7 [24]): 10.9 to 18.6 µM
SMILES: CC/C(=C(\c1ccccc1)c1ccc(OCCN(C)C)cc1)c1ccccc1 [TAMOXIFEN]
IC50 (HEK293): > 50 µM

IC50 (K562): 9.7 to 81.9 µM
IC50 (HeLa [18]): 9.7 to 81.9 µM
IC50 (Caco-2): 9.7 to 81.9 µM
SMILES: COc1cccc(-c2cn(Cc3cc(=O)oc4cc(O)c(O)cc34)nn2)c1
IC50 [19]: 36.7 to 46 µM

IC50 (MDA-MB-231): 12 µM
SMILES: COC(=O)c1ccc(-n2nc(N)c(C(=O)NCCNC(=O)c3nn(-c4ccc(C(=O)OC)cc4)nc3N)n2)cc1
IC50 (HEK293): > 50 µM

IC50 (SW480): 0.43 to 30.5 µM
IC50 (HL-60): 0.43 to 30.5 µM
IC50 (A549 [14]): 0.43 to 30.5 µM
SMILES: CCCC(=O)OC[C@H]1O[C@@H](OC(COCc2cn([C@H]3c4cc5c(cc4[C@@H](c4cc(OC)c(O)c(OC)c4)[C@H]4C(=O)OC[C@@H]43)OCO5)nn2)COCc2cn([C@H]3c4cc5c(cc4[C@@H](c4cc(OC)c(O)c(OC)c4)[C@H]4C(=O)OC[C@@H]43)OCO5)nn2)[C@H](OC(=O)CCC)[C@@H](OC(=O)CCC)[C@@H]1OC(=O)CCC (stereo not given in full)
IC50 [6]: 0.43 to 30.5 µM

Second part, the molecule before the results:

SMILES: COc1cc([C@@H]2c3cc4c(cc3[C@@H](O[C@@H]3O[C@@H]5CO[C@@H](C)O[C@H]5[C@H](O)[C@H]3O)[C@H]3COC(=O)[C@H]23)OCO4)cc(OC)c1O [ETOPOSIDE]
IC50 (HepG2 [5]): 11.8 to 15.7 µM
IC50 [6]: 0.31 to 32.8 µM
IC50 (DU-145 [7]): 6.94 to 50 µM
IC50 (DU-145 [8]): 9.8 µM
IC50 (KB): 11.8 to 15.7 µM
IC50 (HeLa [9]): 6.94 to 50 µM
IC50 (MCF7-DOX): 6.94 to 50 µM
GI50 (T47D): 7.9 µg/mL (≈ 13.4 µM)
IC50 (MCF7 [10]): 6.94 to 50 µM
GI50 (MCF7 [11]): 7.5 µg/mL (≈ 12.7 µM)
IC50 (A549 [12]): 6.94 to 50 µM
IC50 (MCF7 [13]): 0.31 to 32.8 µM
IC50 (SW480): 0.31 to 32.8 µM
IC50 (HL-60): 8.12 to 32.8 µM
IC50 (SK-OV-3): 6.94 to 50 µM
IC50 (A549 [14]): 0.31 to 32.8 µM
IC50 (HepG2 [15]): 6.94 to 50 µM

SMILES: O=c1cc(Cn2cc(-c3ccccc3)nn2)c2cc(O)c(O)cc2o1
IC50 (K562): 9.7 to 81.9 µM
IC50 (HeLa [18]): 9.7 to 81.9 µM
IC50 (Caco-2): 9.7 to 81.9 µM
IC50 [19]: 36.7 to 46 µM

SMILES: C=CCC1CN2CCC1CC2[C@H](O)c1ccnc2ccc(-c3cn(-c4ccccc4)nn3)cc12 (stereo not given in full)
IC50 (DU-145 [21]): 0.53 to 14.6 µM
IC50 (HT-29 [22]): 0.53 to 14.6 µM
IC50 (MV4-11): 0.53 to 14.6 µM
IC50 (A549 [23]): 0.53 to 14.6 µM
IC50 (MCF-10A): 0.53 to 14.6 µM
IC50 (MCF7 [24]): 0.53 to 14.6 µM

SMILES: COc1ccc(-c2cn(Cc3cc(=O)oc4cc(O)c(O)cc34)nn2)cc1
IC50 (K562): 9.7 to 81.9 µM
IC50 (HeLa [18]): 9.7 to 81.9 µM
IC50 (Caco-2): 9.7 to 81.9 µM
IC50 [19]: 36.7 to 46 µM

SMILES: C[C@@H]1CC[C@@]2(OC1)O[C@H]1C[C@H]3[C@@H]4CC=C5C[C@@H](O)CC[C@]5(C)[C@H]4CC[C@]3(C)[C@H]1[C@@H]2C [DISOGENIN]
IC50 (HCT-116 [16]): 10.8 to 13.3 µM
IC50 (HT-29 [17]): 10.8 to 13.3 µM
IC50 (HBL-100): 10.8 to 13.3 µM
IC50 (A549 [14]): 10.8 to 13.3 µM

SMILES: COc1cc([C@@H]2c3cc4c(cc3[C@H](n3cc(COCC(COCc5cn([C@H]6c7cc8c(cc7[C@@H](c7cc(OC)c(O)c(OC)c7)[C@H]7C(=O)OC[C@@H]76)OCO8)nn5)O[C@@H]5O[C@H](COC(C)=O)[C@@H](OC(C)=O)[C@H](OC(C)=O)[C@H]5OC(C)=O)nn3)[C@H]3COC(=O)[C@H]23)OCO4)cc(OC)c1O (stereo not given in full)
IC50 [6]: 0.43 to 30.5 µM
IC50 (SW480): 0.43 to 30.5 µM
IC50 (HL-60): 0.43 to 30.5 µM
IC50 (A549 [14]): 0.43 to 30.5 µM
